Bounds are passed on as bounds.

The target of one assay is B-Raf (Homo sapiens, UniProt P15056). The experiment in a line: B-Raf Accelerated MEK ATPase assay (BRAMA), Method A or B. Type of assay: biochemical. The note with it: Method B: final MEK 150 nM, single end point read. As for the experimental part:
Compounds of the present invention were tested for B-Raf protein serine kinase inhibitory activity in a B-Raf Accelerated MEK ATPase assay (BRAMA). The BRAMA assay is a high sensitivity assay which measures an intrinsic MEK-mediated ATP hydrolysis uncoupled from downstream ERK phosphorylation by coupling the formation of ADP to NADH oxidation through the enzymes pyruvate kinase and lactate dehydrogenase. When ADP production is initiated by addition of catalytic amounts of an activated Raf enzyme and non-phosphorylated MEK, one observes robust ADP production concomitant with Raf-mediated phosphorylation of MEK.
Method A: Specific details of the assay are disclosed in: C. Rominger, M. Schaber, E. May. Assay for B-Raf Activity Based on Intrinsic MEK ATPase Activity. Statutory Invention Registration 11/084,993 (March, 2005). Method B: The method is the same as method A, but includes the following changes: 1) the assay was performed with a final MEK concentration of 150 nM and 2) the assay was read as single end point instead of a kinetic read.

For a further assay, the target named is T1, EGFR (Homo sapiens, UniProt P00533).
T1 construct: made in house; host or cells: baculovirus expression system
T1 sequence (P00533 25-1210): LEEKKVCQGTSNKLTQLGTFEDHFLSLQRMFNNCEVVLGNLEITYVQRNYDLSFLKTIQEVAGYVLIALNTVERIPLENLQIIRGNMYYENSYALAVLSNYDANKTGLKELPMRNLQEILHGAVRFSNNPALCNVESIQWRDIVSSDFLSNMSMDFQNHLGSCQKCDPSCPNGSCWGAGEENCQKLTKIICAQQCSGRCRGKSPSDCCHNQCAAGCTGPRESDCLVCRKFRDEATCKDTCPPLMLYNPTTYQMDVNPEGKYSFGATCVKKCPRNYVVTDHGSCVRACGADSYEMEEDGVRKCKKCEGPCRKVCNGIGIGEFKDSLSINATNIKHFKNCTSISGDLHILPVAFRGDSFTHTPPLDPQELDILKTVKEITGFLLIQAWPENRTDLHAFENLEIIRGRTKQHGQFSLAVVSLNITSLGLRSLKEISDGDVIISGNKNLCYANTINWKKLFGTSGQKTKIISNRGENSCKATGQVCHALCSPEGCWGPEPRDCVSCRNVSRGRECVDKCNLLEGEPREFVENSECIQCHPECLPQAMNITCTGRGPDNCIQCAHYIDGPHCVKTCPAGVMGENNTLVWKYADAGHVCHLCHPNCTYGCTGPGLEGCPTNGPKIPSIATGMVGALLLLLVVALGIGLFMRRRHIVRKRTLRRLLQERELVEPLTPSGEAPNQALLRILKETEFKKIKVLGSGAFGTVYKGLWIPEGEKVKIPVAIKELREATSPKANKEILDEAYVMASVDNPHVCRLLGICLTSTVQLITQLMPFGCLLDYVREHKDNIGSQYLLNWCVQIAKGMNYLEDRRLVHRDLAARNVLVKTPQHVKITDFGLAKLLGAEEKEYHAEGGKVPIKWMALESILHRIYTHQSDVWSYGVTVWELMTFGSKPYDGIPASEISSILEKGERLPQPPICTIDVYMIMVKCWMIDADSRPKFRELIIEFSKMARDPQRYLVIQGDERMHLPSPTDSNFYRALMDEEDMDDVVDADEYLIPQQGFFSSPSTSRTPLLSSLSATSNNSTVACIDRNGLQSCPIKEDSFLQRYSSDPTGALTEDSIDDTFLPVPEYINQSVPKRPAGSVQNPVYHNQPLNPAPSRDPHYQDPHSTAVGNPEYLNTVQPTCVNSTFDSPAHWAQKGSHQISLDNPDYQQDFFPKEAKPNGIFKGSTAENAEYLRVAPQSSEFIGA
Description: EGFR substrate phosphorylation assay (HTRF). Type of assay: biochemical. Here is the method: (§1) Compounds of the present invention were tested for EGFR and ErbB-2 protein tyrosine kinase inhibitory activity in substrate phosphorylation assays using enzymes purified from a baculovirus expression system. Reagent production was conducted essentially as described in Brignola, P. S., et al, (2002) J. Biol. Chem. 277(2):1576-1585.
(§2) The method measures the ability of the isolated enzyme to catalyse the transfer of the gamma-phosphate from ATP onto the tyrosine residue of a biotinylated synthetic peptide referenced “Peptide C” in Brignola, P. S., et al, (2002) J. Biol. Chem. 277(2):1576-1585. The extent of tyrosine phosphorylation was measured using an anti-phosphotyrosine antibody, and quantified by homogenous time-resolved fluorescence (HTRF).
(§3) Reactions were performed in black 384-well polystyrene flat-bottom plates in a final volume of 20 μL. Assays were performed by adding 10 μL of each of the following solutions, Substrate Mix and Enzyme Mix: The Substrate Mix contained 100 mM 3-[N-morpholino]propanesulfonic acid (MOPS) (pH 7.5), 2 mM MnCl2, 20 μM ATP, 0.01% Tween-20, 0.1 mg/mL (BSA), 0.8 uM peptide substrate, and 1 mM dithiothreitol. The Enzyme Mix contained 100 mM MOPS (pH7.5); 0.01% Tween-20; 0.1 mg/mL BSA, and either 0.8 nM EGFR, 10 nM ErbB2, or 1 nM ErbB4. The Enzyme Mix was added to the compound plates and the plates were incubated at 20° C. for 1 hr. The reactions were then started by adding the Substrate Mix.
(§4) After initiating the reaction with the method described above, the reactions were allowed to proceed for 90 minutes at 20° C. The reactions were then terminated by the addition of 20 μL 100 mM EDTA to each well. 40 μL/well of HTRF detection mix were added to the assay plates. The final concentrations of the detection reagents were: 100 mM HEPES (pH7.5), 0.1 mg/mL BSA, 15 nM streptavidin-labeled allophycocyanin (PerkinElmer), and 1 nM europium-labeled anti-phosphotyrosine antibody (Perkin Elmer). Assay plates were left unsealed and were counted in a Wallac Multilabel Counter 1420 (PerkinElmer).
(§5) Compounds under analysis were dissolved in dimethylsulfoxide (DMSO) to 1.0 mM and serially diluted 1 to 3 with DMSO through twelve dilutions. 1 μL of each concentration was transferred to the corresponding well of an assay plate. This creates a final compound concentration range from 0.00027 to 47.6 μM.
(§6) The data for dose responses were plotted as % Inhibition calculated with the data reduction formula 100*(1-(U1−C2)/(C1−C2)) versus concentration of compound where U1 is the unknown value, C1 is the average control value obtained for 4.76% DMSO, and C2 is the average control value obtained for 0.035 M EDTA. Data were fitted with a curve described by:
(§7) where Vmax is the upper asymptote, Y2 is the Y intercept, and K is the IC50. The results for each compound were recorded as pIC50s, calculated as follows: […]

The next assay addresses T2, ErbB2 (Homo sapiens, UniProt P04626).
T2 construct: made in house; host or cells: baculovirus expression system
Description: ErbB-2 substrate phosphorylation assay (HTRF). Type of assay: biochemical. As for the experimental part:
as §1, §2, §3, §4, §5, §6, §7

The next assay relates to Colo205 tumor cells. The experiment in a line: Cell growth inhibition assay (CellTiter-Glo), Colo205. Type of assay: cell-based, Human. To be noted: Homo sapiens, COLO 205, 72 h; 3 days incubation. As for the experimental part:
(§8) Human breast tumor cells (BT474) were cultured in RPMI (Mediatech […]), containing 10% FBS (JRH Biosciences 12176) and 1% penicillin-streptomycin (Invitrogen 15140). Human head and neck tumor cells (HN5) were cultured in high glucose DMEM (Mediatech 50-013-PB) containing 10% FBS and 1% penicillin-streptomycin. Human colon tumor cells (Colo205) were cultured in RPMI (Mediatech 50-020-PB) containing 10% FBS and 1% penicillin-streptomycin. Human melanoma cancer cells (SK-MEL-28) were cultured in EMEM with nonessential amino acids (Mediatech 50-011-PB) containing 10% FBS, 1% sodium pyruvate (JT Baker 3354-04), and 1% penicillin-streptomycin. Human melanoma cancer cells (A375P F11s) were cultured in RPMI (Mediatech 50-020-PB) containing 10% FBS, 1% sodium pyruvate, and 1% penicillin-streptomycin. Human colon cancer cells (HT-29) were cultured in high glucose DMEM (Mediatech 50-013-PB) containing 10% FBS and 1% penicillin-streptomycin. Human melanoma cancer cells (SK-MEL-3) were cultured in McCoy's 5A (50-025-PB) containing 15% FBS, and 1% penicillin-streptomycin. All cell lines were maintained at 37° C. in a humidified 5% CO2, 95% air incubator. Cells were harvested using trypsin/EDTA (Invitrogen 25200), counted using a haemocytometer, and plated. For 96-well assays (using white full-area NUNC plates cat. #136102), cells were plated in 105 μL at the following densities (cells/well): HNS, 500; Colo 205, 500; SK-MEL-28, 500; A375P F11s, 500; HT-29, 500; SK-MEL-3, 500; and BT474, 3000. For 384-well assays (white full-area NUNC plates, cat. #781080), cells were plated in 48 μL at the following densities (cells/well): HNS, 500; Colo205, 500; SK-MEL-28, 500; A375P F11s, 500; HT-29, 500; SK-MEL-3, 500; and BT474, 2000.
(§9) The next day, compounds were diluted as follow: For 96-well assays, 13.5 μL of compound in DMSO were diluted using nine (9) serial 1:3 dilutions of 4.5 μL in 9 of DMSO. Medium (270 μL/well of RPMI with 10% FBS and 1% penicillin-streptomycin) was added to the plates. Aliquots (7 μL) were added to cells in the final assay giving a final DMSO concentration of 0.2%. For 384-well assays, 15 μL of compound in DMSO were diluted using nine (9) serial 1:3 dilutions of 5 μL in 10 μL of DMSO, followed by a further dilution of 5 μL of compound with 95 μL of medium, of which 2 μL were added to cells in the final assay giving a final DMSO concentration of 0.2%. Cells were incubated at 37° C., 5% CO2 for 3 days.
(§10) Total ATP was measured (as a surrogate estimate of cell number) using CellTiter-Glo® reagent (Promega G7571). Briefly, plates were removed from the incubator and allowed to equilibrate to room temperature for 30 minutes. CellTiter-Glo® (25 μL or 55 μL for 384-well or 96-well assays, respectively) reagent was added to each well and plates were shaken on an orbital plate shaker for 2 minutes. Plates were incubated without shaking for a further 30 minutes and read on an LJL Analyst GT reader in luminometer mode with an integration time of 0.5 seconds per well. Percent inhibition of cell growth was calculated relative to DMSO vehicle-treated control wells. Concentration of compound required to give 50% inhibition of vehicle-treated control cell growth (IC50) was interpolated using a 4-parameter fit for determining IC50 using the following equation: Y=A +((B−A)/(1+((C/X)̂D))) where […].

For another assay, the system named is SK-MEL-28 tumor cells. The experiment in a line: Cell growth inhibition assay (CellTiter-Glo), SK-MEL-28. Type of assay: cell-based, Human. To be noted: Homo sapiens, SK-MEL-28, 72 h; 3 days incubation. As for the experimental part:
as §8, §9, §10

Sequence of B-Raf (P15056 whole entry): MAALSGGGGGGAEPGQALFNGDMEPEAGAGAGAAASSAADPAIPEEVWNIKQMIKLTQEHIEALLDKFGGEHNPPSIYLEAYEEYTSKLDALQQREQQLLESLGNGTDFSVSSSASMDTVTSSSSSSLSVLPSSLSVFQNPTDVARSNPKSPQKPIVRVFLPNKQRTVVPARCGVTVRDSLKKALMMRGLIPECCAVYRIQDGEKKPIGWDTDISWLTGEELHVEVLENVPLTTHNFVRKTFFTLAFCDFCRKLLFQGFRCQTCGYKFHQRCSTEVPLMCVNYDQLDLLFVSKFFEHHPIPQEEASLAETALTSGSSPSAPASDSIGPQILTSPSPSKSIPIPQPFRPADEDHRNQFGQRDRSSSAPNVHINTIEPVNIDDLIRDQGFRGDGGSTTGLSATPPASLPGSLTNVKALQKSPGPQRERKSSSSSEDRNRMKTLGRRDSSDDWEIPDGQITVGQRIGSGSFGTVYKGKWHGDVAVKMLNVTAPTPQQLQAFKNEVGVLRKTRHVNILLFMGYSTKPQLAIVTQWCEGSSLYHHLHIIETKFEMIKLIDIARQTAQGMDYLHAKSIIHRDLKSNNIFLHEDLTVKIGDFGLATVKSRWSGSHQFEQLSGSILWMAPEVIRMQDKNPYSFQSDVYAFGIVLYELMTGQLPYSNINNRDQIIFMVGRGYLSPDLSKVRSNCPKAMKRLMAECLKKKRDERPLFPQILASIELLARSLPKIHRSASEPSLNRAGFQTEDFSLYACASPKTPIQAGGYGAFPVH
T2 sequence (P04626 23-1255): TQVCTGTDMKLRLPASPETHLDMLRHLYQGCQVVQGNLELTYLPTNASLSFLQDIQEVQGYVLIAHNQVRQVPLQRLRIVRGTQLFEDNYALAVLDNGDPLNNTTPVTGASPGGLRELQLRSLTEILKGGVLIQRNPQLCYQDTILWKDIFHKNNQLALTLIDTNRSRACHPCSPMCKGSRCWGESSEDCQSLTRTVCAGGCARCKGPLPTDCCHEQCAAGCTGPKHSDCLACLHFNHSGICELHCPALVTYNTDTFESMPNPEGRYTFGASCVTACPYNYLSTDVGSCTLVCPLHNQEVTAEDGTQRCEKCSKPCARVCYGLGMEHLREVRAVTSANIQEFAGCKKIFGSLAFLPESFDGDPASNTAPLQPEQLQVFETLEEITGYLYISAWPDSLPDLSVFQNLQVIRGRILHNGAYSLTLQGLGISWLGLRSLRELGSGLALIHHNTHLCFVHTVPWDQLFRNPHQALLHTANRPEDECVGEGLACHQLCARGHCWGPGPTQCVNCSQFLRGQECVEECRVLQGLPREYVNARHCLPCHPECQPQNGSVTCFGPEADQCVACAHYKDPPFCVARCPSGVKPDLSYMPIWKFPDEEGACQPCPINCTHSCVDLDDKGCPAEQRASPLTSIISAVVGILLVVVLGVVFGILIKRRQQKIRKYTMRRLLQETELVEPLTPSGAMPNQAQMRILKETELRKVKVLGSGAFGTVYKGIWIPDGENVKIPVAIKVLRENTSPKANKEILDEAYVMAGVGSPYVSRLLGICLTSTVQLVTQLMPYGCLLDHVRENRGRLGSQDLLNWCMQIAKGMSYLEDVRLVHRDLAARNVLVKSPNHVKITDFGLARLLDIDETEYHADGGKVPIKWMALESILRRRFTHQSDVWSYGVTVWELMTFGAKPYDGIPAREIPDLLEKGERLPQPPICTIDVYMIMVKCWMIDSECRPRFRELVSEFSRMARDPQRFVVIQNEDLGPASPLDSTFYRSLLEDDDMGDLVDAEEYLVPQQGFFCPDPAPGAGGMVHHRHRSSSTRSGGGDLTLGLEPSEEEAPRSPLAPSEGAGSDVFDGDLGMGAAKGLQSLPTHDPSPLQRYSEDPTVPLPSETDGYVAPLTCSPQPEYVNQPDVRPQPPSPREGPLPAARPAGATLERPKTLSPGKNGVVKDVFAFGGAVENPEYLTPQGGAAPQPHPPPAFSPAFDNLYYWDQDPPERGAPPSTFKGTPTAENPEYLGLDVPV

In the case of `CS(=O)(=O)N1CCN(c2ccc(Nc3nccc(-c4oc(N5CCCC5)nc4-c4ccc(F)c(NS(=O)(=O)c5ccccc5F)c4)n3)cn2)CC1` [Example 60], the IC50 is less than 0.1 µM at B-Raf; greater than 1 µM on EGFR; greater than 1 µM on ErbB2; 0.1 to 1 µM in the assay with Colo205 tumor cells; greater than 1 µM in the assay on SK-MEL-28 tumor cells.

On to `CC(C)c1nc(-c2ccc(F)c(NS(=O)(=O)c3c(F)cccc3F)c2)c(-c2ccnc(Nc3ccc(N4CCN(CCS(C)(=O)=O)CC4)c(F)c3)n2)o1` [Example 61], for which the concentration for half-maximal inhibition (IC50) is less than 0.1 µM on B-Raf; greater than 1 µM at EGFR; 0.1 to 1 µM against ErbB2; 0.1 to 1 µM in the assay on Colo205 tumor cells; 0.1 to 1 µM with SK-MEL-28 tumor cells.

With `COc1cc(N2CCN(CCS(C)(=O)=O)CC2)c(C)cc1Nc1nccc(-c2sc(N)nc2-c2cccc(NS(=O)(=O)c3c(F)cccc3F)c2)n1` [Example 63], the IC50 is 0.1 to 1 µM against B-Raf; 0.1 to 1 µM against EGFR; less than 0.1 µM against ErbB2; 0.1 to 1 µM in the assay with Colo205 tumor cells; greater than 1 µM in the assay with SK-MEL-28 tumor cells.

As to `Nc1nc(-c2ccc(F)c(NS(=O)(=O)c3c(F)cccc3F)c2)c(-c2ccnc(Nc3ccc(N4CCOCC4)nc3)n2)s1` [Example 64], the concentration for half-maximal inhibition (IC50) on B-Raf is less than 0.1 µM; on EGFR, 0.1 to 1 µM; on ErbB2, less than 0.1 µM; in the assay on Colo205 tumor cells, greater than 1 µM; with SK-MEL-28 tumor cells, greater than 1 µM.

Take `CCc1nc(-c2ccc(F)c(NS(=O)(=O)c3ccccc3)c2)c(-c2ccnc(Nc3ccc(N4CCN(CCS(C)(=O)=O)CC4)c(F)c3)n2)s1` [Example 67]: the 50% inhibitory concentration (IC50) at B-Raf was 0.1 to 1 µM; against EGFR, greater than 1 µM; against ErbB2, 0.1 to 1 µM; with Colo205 tumor cells, 0.1 to 1 µM; with SK-MEL-28 tumor cells, 0.1 to 1 µM.

On to `CCc1nc(-c2cccc(CNS(=O)(=O)c3ccccc3)c2)c(-c2ccnc(Nc3ccc(N4CCN(C(C)=O)CC4)nc3)n2)s1` [Example 68], for which the half-inhibitory concentration (IC50) at B-Raf is 0.1 to 1 µM; on EGFR, 0.1 to 1 µM; against ErbB2, 0.1 to 1 µM; in the assay with Colo205 tumor cells, greater than 1 µM; in the assay on SK-MEL-28 tumor cells it was greater than 1 µM.

As to `CCc1nc(-c2ccc(F)c(NS(=O)(=O)c3ccccc3)c2)c(-c2ccnc(Nc3ccc(N4CCN(C(C)C)CC4)cc3OC)n2)s1` [Example 69], the IC50 at B-Raf is 0.1 to 1 µM; against EGFR it was 0.1 to 1 µM; on ErbB2, 0.1 to 1 µM; in the assay on Colo205 tumor cells, greater than 1 µM; with SK-MEL-28 tumor cells, greater than 1 µM.

As to `COc1cc(C)ccc1S(=O)(=O)Nc1cccc(-c2nc(C(C)C)sc2-c2ccnc(Nc3ccc(N4CCN(C(C)=O)CC4)nc3)n2)c1` [Example 76], the IC50 against B-Raf was 0.1 to 1 µM; on EGFR, greater than 1 µM; against ErbB2 it was greater than 1 µM; in the assay with Colo205 tumor cells, greater than 1 µM; in the assay with SK-MEL-28 tumor cells it was greater than 1 µM.

Consider `CC(C)c1nc(-c2cccc(NS(=O)(=O)Cc3ccccc3)c2)c(-c2ccnc(Nc3ccc(N4CCOCC4)c(F)c3)n2)s1` [Example 86], for which the 50% inhibitory concentration (IC50) at B-Raf is 0.1 to 1 µM; against EGFR, greater than 1 µM; against ErbB2, greater than 1 µM; in the assay on Colo205 tumor cells, greater than 1 µM; with SK-MEL-28 tumor cells, greater than 1 µM.

On to `COc1c(Nc2nccc(-c3sc(C(C)C)nc3-c3cccc(NS(=O)(=O)c4c(F)cccc4F)c3)n2)ccc(N2CCN(CCS(C)(=O)=O)CC2)c1C` [Example 90], for which the IC50 on B-Raf is less than 0.1 µM; on EGFR it was greater than 1 µM; against ErbB2 it was greater than 1 µM; in the assay with Colo205 tumor cells, 0.1 to 1 µM; in the assay on SK-MEL-28 tumor cells it was 0.1 to 1 µM.

Take `CC(C)(F)c1nc(-c2ccc(F)c(NS(=O)(=O)c3c(F)cccc3F)c2)c(-c2ccnc(Nc3ccc(N4CCOCC4)nc3)n2)s1` [Example 103]: the IC50 is 0.1 to 1 µM at B-Raf; greater than 1 µM at EGFR; greater than 1 µM at ErbB2; 0.1 to 1 µM in the assay on Colo205 tumor cells; 0.1 to 1 µM in the assay on SK-MEL-28 tumor cells.

For the molecule `COc1ccc(S(=O)(=O)Nc2cccc(-c3nc(C(C)C)sc3-c3ccnc(Nc4ccc(N5CCOCC5)nc4)n3)c2)cc1OC` [Example 104], the IC50 against B-Raf is 0.1 to 1 µM; on EGFR, greater than 1 µM; against ErbB2 it was greater than 1 µM; with Colo205 tumor cells, 0.1 to 1 µM; in the assay with SK-MEL-28 tumor cells it was greater than 1 µM.

For the molecule `Cc1cc(S(=O)(=O)Nc2cccc(-c3nc(C(C)C)sc3-c3ccnc(Nc4ccc(N5CCOCC5)nc4)n3)c2)c(F)cc1Cl` [Example 105], the 50% inhibitory concentration (IC50) on B-Raf is 0.1 to 1 µM; against EGFR, greater than 1 µM; on ErbB2 it was 0.1 to 1 µM; in the assay on Colo205 tumor cells, 0.1 to 1 µM; in the assay with SK-MEL-28 tumor cells it was greater than 1 µM.

Values taken from patent US20110319392A1, “Thiazole Sulfonamide And Oxazole Sulfonamide Kinase Inhibitors” (priority 2009, published 2011).
